The source of these data is the supplement of paper PMC5579334.

As a reminder, the relative IC50 is the concentration at the midpoint between the plateaus of the fitted inhibition curve.

For assay [1], the system named is ST8814. Kind of assay: relative IC50 (inflection point of fitted dose-response curve, CellTox-Green cytotoxicity, 72 h; top asymptote may be below 50%); higher = less potent. The essentials:
(§1)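 For 72 h at 37 °C, MPNST cell lines and primary human Schwann cells were exposed in 384-well plates to five 10-fold compound dilutions. CellTox-Green, added before seeding at a final 1:1000 dilution, gave fluorescence from DNA released by disrupted cells. Signals were scaled to vehicle and positive-control wells, cultures failing plate quality control were left out, and four-parameter logistic fits were applied. Relative IC50 and drug sensitivity score were derived from the fits, with IC50 censored at the top concentration.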

Assay [2] concerns STS26T. The description is as above. The essentials: as §1
Assay [3] relates to HS-PSS. Described as above. The essentials: as §1
Assay [4] relates to HSC1. The description is as above. In a few lines: as §1
Assay [5] relates to S1507-2. The assay is described as above. The essentials: as §1
The test system of assay [6] is HSC2. The assay is described as above. The essentials: as §1
A further assay relates to HS-Sch-2. Kind of assay: relative IC50 (inflection point of fitted dose-response curve, CellTiter-Glo viability, 72 h; top asymptote may be below 50% inhibition); higher = less potent. In a few lines: (§2)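 After seeding 750–1000 cells per well of MPNST cell lines or primary human Schwann cells into 384-well plates preprinted with each compound at five concentrations in 10-fold steps, plates were kept 72 h at 37 °C, 5% CO2. Viability was read as CellTiter-Glo ATP luminescence relative to vehicle and positive-control wells, with duplicates averaged where present. The data were fitted with four-parameter logistic models. Drug sensitivity score and relative IC50, censored at the top concentration, derive from the fits, and percent inhibition refers to the top concentration.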
In general terms: In ATP-based viability assays light output follows the ATP content of the culture.

For assay [7], the system named is ST8814. The assay is described as above. In a few lines:
as §2

The subject of assay [8] is STS26T. The assay is described as above. The essentials:
as §2

Assay [9] concerns HS-PSS. The assay is described as above. The essentials: as §2
The test system of assay [10] is HSC1. The description is as above. In a few lines: as §2
Assay [11] concerns S1507-2. Described as above. In a few lines:
as §2

The next assay deals with S462. The assay is described as above. The essentials:
as §2

Assay [12] deals with HSC2. The description is as above. The essentials: as §2
Another assay deals with YST-1. The assay is described as above. In a few lines: as §2

On to `CNC(=O)c1cc(Oc2ccc(NC(=O)Nc3ccc(Cl)c(C(F)(F)F)c3)cc2)ccn1` [Sorafenib], for which the “relative IC50” value in the assay with ST8814 [1], with STS26T [2], with HS-PSS [3], with HSC1 [4], in the assay with S1507-2 [5] and in the assay on HSC2 [6] was above 1000 nM each time. For the same compound, the “relative IC50” value in the assay on HS-Sch-2, with ST8814 [7], in the assay on STS26T [8], with HS-PSS [9], with HSC1 [10] and in the assay on S1507-2 [11] was above 1000 nM throughout. Moreover, the “relative IC50” value with S462 and with HSC2 [12] was above 1000 nM each time.

Consider `CC(=O)Nc1ccc(C(=O)Nc2ccccc2N)cc1` [Tacedinaline], for which the “relative IC50” value in the assay on ST8814 [1], in the assay with STS26T [2], with HSC1 [4], with S1507-2 [5], in the assay with HSC2 [6] and in the assay on HS-Sch-2 was above 1000 nM in each case. In addition, the “relative IC50” value with ST8814 [7], in the assay on STS26T [8], in the assay on HS-PSS [9], in the assay with YST-1, in the assay on HSC1 [10] and in the assay with S1507-2 [11] was above 1000 nM in each case. In addition, the “relative IC50” value in the assay with S462 and in the assay on HSC2 [12] was above 1000 nM each time.

On to `S=P(N1CC1)(N1CC1)N1CC1` [Thio-TEPA], for which the “relative IC50” value with ST8814 [1], in the assay with STS26T [2], in the assay on HS-PSS [3], in the assay with HSC1 [4], with S1507-2 [5] and with HSC2 [6] was above 50000 nM in each case. For the same compound, the “relative IC50” value in the assay on ST8814 [7], in the assay on STS26T [8], with HS-PSS [9], in the assay on YST-1, in the assay with HSC1 [10] and in the assay on S1507-2 [11] was above 50000 nM in each case. For the same compound, the “relative IC50” value in the assay on S462 and with HSC2 [12] was above 50000 nM each time.

On to `O=C1NC(=O)[C@@H](c2cn3c4c(cccc24)CCC3)[C@@H]1c1c[nH]c2ccccc12` [Tivantinib], for which the “relative IC50” value came out at 328 nM with ST8814 [1]; 210 nM in the assay on STS26T [2]; 240 nM in the assay with HSC1 [4]; 253 nM with S1507-2 [5]; 243 nM in the assay with HSC2 [6]; 231 nM with HS-Sch-2. In addition, the “relative IC50” value in the assay on ST8814 [7] amounted to 330 nM; with STS26T [8], 239 nM; in the assay on HS-PSS [9], 239 nM; with YST-1 it was 190 nM; with HSC1 [10] it was 276 nM; in the assay with S1507-2 [11] it was 254 nM. In addition, the “relative IC50” value with S462 was found to be 340 nM; with HSC2 [12], 251 nM.

For the compound `CC[C@]1(O)C[C@@H]2CN(CCc3c([nH]c4ccccc34)[C@@](C(=O)OC)(c3cc4c(cc3OC)N(C)[C@H]3[C@@](O)(C(=O)OC)[C@H](OC(C)=O)[C@]5(CC)C=CCN6CC[C@]43[C@@H]65)C2)C1` [Vinblastine], the “relative IC50” value in the assay with ST8814 [1] is 2.83 nM; in the assay on STS26T [2], 2.01 nM; in the assay on HSC1 [4] it was 31.9 nM; with S1507-2 [5], 4.53 nM; in the assay on HSC2 [6], 13.7 nM; in the assay on HS-Sch-2 it was 2.21 nM. Moreover, the “relative IC50” value in the assay on ST8814 [7] was 2.98 nM; in the assay on STS26T [8] it was 2.86 nM; in the assay with HS-PSS [9] it was 10.9 nM; in the assay with YST-1 it was 3.76 nM; in the assay on HSC1 [10] it was 6.83 nM; in the assay on S1507-2 [11], 5.3 nM. In addition, the “relative IC50” value stood at 3.13 nM in the assay with S462 and 5.82 nM in the assay with HSC2 [12].

As for `CC[C@]1(O)C[C@H]2CN(CCc3c([nH]c4ccccc34)[C@@](C(=O)OC)(c3cc4c(cc3OC)N(C=O)[C@H]3[C@@](O)(C(=O)OC)[C@H](OC(C)=O)[C@]5(CC)C=CCN6CC[C@]43[C@@H]65)C2)C1` [Vincristine], the “relative IC50” value in the assay on ST8814 [1] amounted to 6.85 nM; with STS26T [2] it was 1.13 nM; with HSC1 [4], 62.2 nM; with S1507-2 [5] it was 8.92 nM; with HSC2 [6], 44.7 nM; with HS-Sch-2, 2.19 nM. In addition, the “relative IC50” value was 6.95 nM in the assay on ST8814 [7]; 1.76 nM in the assay with STS26T [8]; 9.51 nM in the assay on HS-PSS [9]; 2.18 nM in the assay on YST-1; 10.3 nM in the assay with HSC1 [10]; 6.45 nM in the assay with S1507-2 [11]. Also, the entries for the “relative IC50” value with S462 and in the assay with HSC2 [12] were 3.42 nM and 11 nM, respectively.

Take `CCC1=C[C@@H]2CN(C1)Cc1c([nH]c3ccccc13)[C@@](C(=O)OC)(c1cc3c(cc1OC)N(C)[C@H]1[C@@](O)(C(=O)OC)[C@H](OC(C)=O)[C@]4(CC)C=CCN5CC[C@]31[C@@H]54)C2` [Vinorelbine]: the “relative IC50” value is 212 nM with ST8814 [1]; 15.3 nM in the assay on STS26T [2]; 484 nM in the assay with HSC1 [4]; 129 nM in the assay on S1507-2 [5]; 647 nM in the assay with HSC2 [6]; 4.21 nM in the assay on HS-Sch-2. The “relative IC50” value in the assay on ST8814 [7] worked out at 140 nM; in the assay with STS26T [8] it was 22.5 nM; in the assay on HS-PSS [9], 21.4 nM; with YST-1, 3 nM; in the assay with HSC1 [10], 153 nM; in the assay with S1507-2 [11], 109 nM. Also, the results for the “relative IC50” value with S462 and in the assay with HSC2 [12] were 34 nM and 95.7 nM, respectively.
